Measured values taken from publication PMC9657749, “Cytotoxic Activity and Docking Studies of 2-arenoxybenzaldehyde N-acyl Hydrazone and 1,3,4-Oxadiazole Derivatives against Various Cancer Cell Lines” (Molecules, 2022).

Experiments:
[1] = system: MDA-MB-231 (breast adenocarcinoma) cells; assay: Cell Titer Glo cell viability assay, MDA-MB-231; format: cell-based, human; conditions: MDA-MB-231, 48 h, 25-300 µM, triplicate, means
Experimental: (§1) To determine the effect of N-acyl hydrazones and 2,5 substituted 1,3,4-oxadiazole derivatives, a dose-response curve was produced for each and every molecule based on the viability of A549 (lung carcinoma), PC-3 (prostate adenocarcinoma), and MDA-MB-231(breast adenocarcinoma) cancerous cell lines by using the Cell Titer Glo assay. The MRC-5 (lung fibroblast) cell line was used as the non-cancerous control group. For 48 h, the cytotoxic effects of novel derivatives on all of the cell lines were investigated in a dose-dependent manner.
(§2) In this study, four adherent cell lines were used: three from different cancer types and one from a regular fibroblast. The cancerous cells were human breast carcinoma (MDA-MB-231, ATCC code: HTB-26), human prostatic carcinoma (PC-3, ATCC code: CRL-1435), and human lung cancer epithelial cells (A549, ATCC code: CCL-185), while the fibroblasts in the control group were human fetal lung (MRC-5, ATCC code: CCL-171) cells. All cells were checked every few weeks for various sources of contamination.
(§3) […], MRC-5, and PC-3 cell lines were cultured in T75 flasks with high glucose DMEM medium (Pan Biotech, Aidenbach, Germany), and A549 cells were cultured with RPMI-1640 (Pan Biotech) containing 10% fetal bovine serum (Gibco, Waltham, MA, USA), 1% penicillin-streptomycin (Gibco), and 1% L-glutamine (Gibco) at 37 °C with 5% CO2. All the cells were removed from the flask with Trypsin/EDTA 0.25% (Gibco) when they reached 80% density.
(§4) To test the effect of different doses on cells, all types of cells were seeded into 96-well plates at a density of eight thousand cells in 100 µL volume per well. Cells were incubated at 37 °C with 5% CO2 for […]. After 24 h in the incubator, the medium on top of each well was discharged. All of the cells were treated with 25, 50, 100, 200, or 300 µM of fifteen N-acyl hydrazones and twelve 2,5-substituted 1,3,4-oxadiazole in a dose-increasing manner. Molecules were studied in triplicate for each concentration. To assess the viability of non-treated cells, a control group was placed in the setup with only cells and DMSO control treatments without any candidate molecules introduced. Plates were incubated for 48 h, and Cell Titer Glo reagent (Promega) was added on top of each well. Cells were then evaluated in terms of viability with the Cell Titer-Glo Luminescent Cell Viability Assay. Luminescence signals were detected with the SpectraMax i3x Multimode Detection Platform to obtain the cell viability percentages.

[2] = system: A549 (lung carcinoma) cells; assay: Cell Titer Glo cell viability assay, A549; format: cell-based; conditions: Homo sapiens, A549, 48 h, 25-300 µM, triplicate, means
Experimental: as §1, §2, §3, §4

[3] = system: PC-3 (prostate adenocarcinoma) cells; assay: Cell Titer Glo cell viability assay, PC-3; format: cell-based, human; conditions: PC-3, 48 h, 25-300 µM, triplicate, means
Experimental: as §1, §2, §3, §4

[4] = system: MRC-5 (lung fibroblast) cells; assay: Cell Titer Glo cell viability assay, MRC-5 non-cancerous control; format: cell-based; conditions: Homo sapiens, MRC5, MRC-5 non-cancerous fibroblasts, 48 h, 25-300 µM, triplicate, means
Experimental: as §1, §2, §3, §4

A-549 cells = assay: Scratch assay (cell migration), A549; format: cell-based, human; conditions: 55 µM 1d, 15 µM 1e, 15 µM 2a, 0, 24, 48 h
Experimental: (§5) The dosages for MDA-MB-231 were 40 µM for 1d, 120 µM for 1e, and 30 µM for 2a. The dosages for A-549 were 55 µM for 1d, 15 µM for 1e, and 15 µM for 2a. Three photos were taken: one immediately after the application, one 24 h later, and one 48 h later. The images of each time stamp for all three molecules can be seen in Figure 4 for the A549 cell line and Figure 5 for the MDA-MB-231 cell line.
(§6) To make comparisons, each application was performed in triplicate for all three molecules; the averages and standard deviations were calculated, and the p values were calculated by considering the sample sizes.
(§7) MDA-MB-231 and A-549 cells were seeded for the scratch assay. A total of 100.000 cells were cultured in 1.5 mL complete medium per well on a 6-well plate, as detailed above. The 6-well plates were then incubated for 24 h at 37 °C. After 24 h, accumulated cells were scraped out with the tip of a 200 µL pipette. After discarding the media on top of the cells, the cells were treated for 48 h with three molecules: 1d, 1e, and 2a.
(§8) The dosages for the MDA-MB-231 cell line were 40 µM for 1d, 120 µM for 1e, and 30 µM for 2a. The dosages for the A-549 cell line were 55 µM for 1d, 15 µM for 1e, and 15 µM for 2a.
(§9) The cell states were evaluated under the microscope, and markings were made to obtain photos from the same location during the follow-up. Images of the determined reference points were captured under the microscope immediately after treatment, 24 h later, and 48 h later.

MDA-MB-231 cells = assay: Scratch assay (cell migration), MDA-MB-231; format: cell-based, human; conditions: 40 µM 1d, 120 µM 1e, 30 µM 2a, 0, 24, 48 h
Experimental: as §5, §6, §7, §8, §9

Compound | IC50 ([1]; Homo sapiens) [µM] | IC50 [2] [µM] | IC50 ([3]; Homo sapiens, 48 h) [µM] | IC50 [1] [µM] | IC50 [3] [µM] | IC50 [4] [µM] | Antimetastatic effect / wound healing rate, scratch assay (A-549 cells) | Antimetastatic effect / wound healing rate, scratch assay (MDA-MB-231 cells)
O=C(N/N=C/c1ccccc1Oc1ccccc1)c1ccccc1 [1a] | 53 | 28.7 | 47.8 |  |  | 16.9 |  | 
O=C(N/N=C/c1ccccc1Oc1ccccc1)c1ccc(Cl)cc1 [1b] | 138 | 72.8 | 25.3 |  |  | 24.4 |  | 
O=C(N/N=C/c1ccccc1Oc1ccccc1)c1cccnc1 [1c] | 50.8 | 208 | 86 |  |  | 43.5 |  | 
O=C(N/N=C/c1ccccc1Oc1ccccc1)c1ccco1 [1d] | 31.5 | 49.8 | 9.39 | 31.5 | 9.39 | 44.7 | did not show a significant antimetastatic effect | did not show a significant antimetastatic effect
Cc1nnsc1C(=O)N/N=C/c1ccccc1Oc1ccccc1 [1e] | 108 | 13.4 | 18.1 |  |  | 87 | did not show a significant antimetastatic effect | did not show a significant antimetastatic effect
N#Cc1ccc(Oc2ccccc2/C=N/NC(=O)c2ccccc2)cc1 [1f] | 77.2 | 36.9 | 65.9 |  |  | 56.8 |  | 
N#Cc1ccc(Oc2ccccc2/C=N/NC(=O)c2cccnc2)cc1 [1h] | 65.8 | 73 | 78.3 |  |  | 66.9 |  | 
N#Cc1ccc(Oc2ccccc2/C=N/NC(=O)c2ccco2)cc1 [1i] | 20.7 | 208 | 84.6 |  |  | 31.7 |  | 
Cc1nnsc1C(=O)N/N=C/c1ccccc1Oc1ccc(C#N)cc1 [1j] | 25.9 | 26.6 | 18.4 |  |  | 37.1 |  | 
O=C(N/N=C/c1ccccc1Oc1ccc(Cl)cc1)c1ccccc1 [1k] | 32.7 | 122 | 46.4 |  |  | 66.9 |  | 
O=C(N/N=C/c1ccccc1Oc1ccc(Cl)cc1)c1ccc(Cl)cc1 [1l] | 77.7 | 39.4 | 30.2 |  |  | 14.6 |  | 
O=C(N/N=C/c1ccccc1Oc1ccc(Cl)cc1)c1cccnc1 [1m] | 55.5 | 71.8 | 38.1 |  |  | 37.9 |  | 
O=C(N/N=C/c1ccccc1Oc1ccc(Cl)cc1)c1ccco1 [1n] | 37.9 | 39.4 | 30.4 |  |  | 50.6 |  | 
Cc1nnsc1C(=O)N/N=C/c1ccccc1Oc1ccc(Cl)cc1 [1o] | 100 | 89.7 | 27 |  |  | 7.78 |  | 
c1ccc(Oc2ccccc2-c2nnc(-c3ccco3)o2)cc1 [2d] | 78.6 | 102 | 54.3 |  |  | 40.1 |  | 

Further lines, with some results ahead:

IC50 ([1]; Homo sapiens) [µM] | IC50 [2] [µM] | IC50 ([3]; Homo sapiens, 48 h) [µM] | IC50 [1] [µM] | IC50 [3] [µM] | Compound | IC50 [4] [µM] | Antimetastatic effect / wound healing rate, scratch assay (A-549 cells) | Antimetastatic effect / wound healing rate, scratch assay (MDA-MB-231 cells)
45.1 | 31.8 | 66.5 |  |  | N#Cc1ccc(Oc2ccccc2/C=N/NC(=O)c2ccc(Cl)cc2)cc1 [1g] | 62.8 |  | 
24 | 29.3 | 66 |  |  | c1ccc(Oc2ccccc2-c2nnc(-c3ccccc3)o2)cc1 [2a] | 74.5 | did not show a significant antimetastatic effect | did not show a significant antimetastatic effect
46.9 | 152 | 82.2 |  |  | Clc1ccc(-c2nnc(-c3ccccc3Oc3ccccc3)o2)cc1 [2b] | 36 |  | 
42.6 | 109 | 121 |  |  | c1ccc(Oc2ccccc2-c2nnc(-c3cccnc3)o2)cc1 [2c] | 12.8 |  | 
32.7 | 45.8 | 34.2 |  |  | N#Cc1ccc(Oc2ccccc2-c2nnc(-c3ccccc3)o2)cc1 [2f] | 141 |  | 
55.7 | 64.8 | 127 |  |  | N#Cc1ccc(Oc2ccccc2-c2nnc(-c3ccc(Cl)cc3)o2)cc1 [2g] | 16 |  | 
38.2 | 78.6 | 78.2 |  |  | N#Cc1ccc(Oc2ccccc2-c2nnc(-c3cccnc3)o2)cc1 [2h] | 23.1 |  | 
23.1 | 72.9 | 41.4 |  |  | N#Cc1ccc(Oc2ccccc2-c2nnc(-c3ccco3)o2)cc1 [2i] | 23.1 |  | 
79.2 | 90 | 65.8 |  |  | Clc1ccc(Oc2ccccc2-c2nnc(-c3ccccc3)o2)cc1 [2k] | 58.3 |  | 
22.7 | 36.3 | 38.4 |  |  | Clc1ccc(Oc2ccccc2-c2nnc(-c3ccc(Cl)cc3)o2)cc1 [2l] | 51.9 |  | 
108 | 137 | 124 |  |  | Clc1ccc(Oc2ccccc2-c2nnc(-c3cccnc3)o2)cc1 [2m] | 124 |  | 
30.4 | 28.8 | 25.6 |  |  | Clc1ccc(Oc2ccccc2-c2nnc(-c3ccco3)o2)cc1 [2n] | 35.6 |  | 
